Measured values: US20230000840A1, “THERAPEUTIC AGENTS AND PROPHYLACTIC AGENTS FOR FUNCTIONAL GASTROINTESTINAL DISORDERS AND XEROSTOMIA” (NIPPON SHINYAKU CO., LTD., priority 2019, published 2023)

Experiments:
[1] = system: ileum; assay: Magnus test: carbachol-induced contraction of isolated rat ileum; settings: test compound 10 μM, then carbachol 50 nM, 100% = carbachol 1000 nM, 0% = DMSO + carbachol 50 nM, average ± standard error, read-out: Enhancement ratio P of the contraction force
Experimental: 9- to 15-week-aged SD female rats (Japan SLC, Inc.) were exsanguinated to death by amputation of carotid artery under isoflurane anesthesia. Then, the ileum was removed from each rat, and cut to a length of 2 cm while excising the mesentery and connective tissue, to prepare an intestinal sample. In a Magnus tank, this sample was immersed and suspended in 20 mL of a Krebs solution at 37° C. (118 mM NaCl, 4.7 mM KCl, 2.5 mM CaCl2, 1.2 mM MgSO4, 1.2 mM KH2PO4, 11 mM D-glucose, 20 mM NaHCO3) aerated with a mixed gas of 95% O2 and 5% CO2. Then, a load of 1 g was applied to the sample to stabilize the tension.
One end of the sample was connected to an isotonic transducer (IT-10, Medical Agent), and tension (contraction force) data was imported to a personal computer via Power Lab (registered trademark) (A&D Instruments Limited). Carbachol (Carbamylcholine Chloride, Cat. No. 036-09841, manufactured by FUJIFILM Wako Pure Chemical Industries, Ltd.) was added to the Krebs solution in the Magnus tank such that the final concentration thereof was 1000 nM, and contraction of the sample was checked. A contraction force Tb of the sample at this time was defined as 100%. Then, the Magnus tank was washed with a Krebs solution three times to wash away carbachol, and the Magnus tank was finally filled with 20 mL of a Krebs solution.
Next, dimethyl sulfoxide (DMSO, Cat. No. 13445-74, manufactured by NACALAI TESQUE, INC.) was added to the Krebs solution in the Magnus tank, then carbachol was added to the Krebs solution in the Magnus tank such that the final concentration thereof was 50 nM, and contraction of the sample was checked. A contraction force Ta of the sample at this time was defined as 0%. Then, the Magnus tank was washed with a Krebs solution three times to wash away carbachol and DMSO, and the Magnus tank was finally filled with 20 mL of a Krebs solution. Next, a test compound dissolved in DMSO was added to the Krebs solution in the Magnus tank such that the final concentration thereof was 10 μM, then carbachol was added to the Krebs solution in the Magnus tank such that the final concentration thereof was 50 nM, and contraction of the sample was checked.
As described above, the contraction force Tb of the sample when carbachol was added at a final concentration of 1000 nM was defined as 100%, and the contraction force Ta of the sample when carbachol was added at a final concentration of 50 nM under the condition that DMSO was added first instead of the test compound was defined as 0%. The contraction force of the sample when carbachol was added at a final concentration of 50 nM under the condition that the test compound was added first at a final concentration of 10 μM was denoted by Tc, and an enhancement ratio P (unit: %) of the contraction force by the test compound was calculated according to the following equation (2). The increase in contraction force by the test compound was evaluated on the basis of the enhancement ratio P. The number of cases in each addition group was 3 to 7.
P=100×(Tc−Ta)/(Tb−Ta) (2)

[2] = system: anesthetized mice; assay: Measurement of secreted saliva amount in anesthetized mice; type: in vivo, mouse; settings: urethane-anesthetized male ICR mice; 10 mg/kg intravenous; cotton balls weighed after 30 minutes; average ± standard error
Experimental: 8-week-aged male ICR mice (Japan SLC, Inc.) were anesthetized with urethane (1650 mg/kg, intraperitoneal administration). After about 1 hour, a test compound or a vehicle (physiological saline containing 10% DMSO (OTSUKA NORMAL SALINE, manufactured by Otsuka Pharmaceutical Factory, Inc.)) was intravenously administered at 10 mg/kg, and immediately after that, one or two absorbent cotton wool balls ([…]) (Roller Cotton (cotton ball) SS, manufactured by Nichiei Co., Ltd.) were inserted into the mouth. The difference between the weight of the absorbent cotton balls after 30 minutes from insertion and the weight of the absorbent cotton balls before insertion was defined as an amount of saliva secreted. At this time, the test compound was dissolved in DMSO and then diluted 10-fold with physiological saline. The administration volumes of the test compound and the vehicle were each set to 5 mL/kg. The experiment was carried out in three parts. The number of cases in each administration group was 3-4.

For `CCOc1ncc(-c2cc(N(C)CC3(COC)CCC3)c3[nH]c(-c4cnc(N5CCC(C(=O)O)CC5)cn4)nc3n2)cc1C(F)(F)F` [Example 3, 1-(5-{5-[6-Ethoxy-5-(trifluoromethyl)pyridin-3-yl]-7-[{[1-(methoxymethyl)cyclobutyl]methyl}(methyl)amino]-1H-imidazo[4,5-b]pyridin-2-yl}pyrazin-2-yl)piperidine-4-carboxylic acid], the activation at 10 µM [1] was 57.3 ± 7.24% and the “Amount of saliva secreted” value [2] was 27.23 ± 5.94 mg.
